This note sets out measurements from patent publication US20210188856A1, “CRYSTAL FORM OF HYDROCHLORIDE OF PYRAZOLOHETEROARYL DERIVATIVE AND PREPARATION METHOD” (JIANGSU HENGRUI MEDICINE CO., LTD., priority 2018, published 2021).

Data set [1] concerns the target T1, CYP2D6 (Homo sapiens, UniProt P10635).
T1 construct: CYP2D6 in human liver microsome; tissue Corning Gentest; host or cells: human liver microsomes
In words: Inhibition of CYP2D6 in human liver microsome. In kind it is in vitro ADME. The method, then: The effect of the compound represented by formula (I) on the enzyme activity of CYP2D6 in human liver microsome was determined by the following experimental method:
100 mM PBS buffer was formulated, which was then used to formulate 2.5 mg/mL microsome solution and 5 mM NADPH solution. The 5× concentration of the compound working solution was diluted with PBS gradient (150, 50, 15, 5, 1.5, 0.15, 0.015, 0 μM). The 5× concentration of quinidine working solution was diluted with PBS gradient (150, 50, 15, 5, 1.5, 0.15, 0.015, 0 μM). Dextromethorphan working solution was diluted with PBS to a concentration of 50 μM.
20 μL of the 2.5 mg/mL microsome solution, 20 μL of the 50 μM […] working solution, 20 μL of MgCl2 solution and 20 μL of the compound working solution (150, 50, 15, 5, 1.5, 0.15, 0.015, 0 μM, different reaction systems for each concentration) were taken respectively and mixed well. For the positive control group, the compound was replaced with the same concentration of quinidine. The mixture together with the 5 mM NADPH solution was pre-incubated at 37° C. for 5 minutes. After 5 minutes, 20 μL of NADPH was added to each well, the reaction was started and incubated for 30 minutes. […] 80 μL of the supernatant was taken and analyzed by LC-MS/MS.
The data were calculated by Graphpad Prism to obtain the IC50 value of the compound on the metabolite site of CYP2D6.
For orientation: Liver microsomes are vesicles of endoplasmic reticulum, rich in cytochrome P450 enzymes.

In data set [2] the target is T2, human TLR7 (Homo sapiens, UniProt Q9NYK1).
T2 construct: host or cells: HEK-Blue hTLR7 (HEK293-derived) stably transfected cells
T2 sequence (Q9NYK1 27-1049): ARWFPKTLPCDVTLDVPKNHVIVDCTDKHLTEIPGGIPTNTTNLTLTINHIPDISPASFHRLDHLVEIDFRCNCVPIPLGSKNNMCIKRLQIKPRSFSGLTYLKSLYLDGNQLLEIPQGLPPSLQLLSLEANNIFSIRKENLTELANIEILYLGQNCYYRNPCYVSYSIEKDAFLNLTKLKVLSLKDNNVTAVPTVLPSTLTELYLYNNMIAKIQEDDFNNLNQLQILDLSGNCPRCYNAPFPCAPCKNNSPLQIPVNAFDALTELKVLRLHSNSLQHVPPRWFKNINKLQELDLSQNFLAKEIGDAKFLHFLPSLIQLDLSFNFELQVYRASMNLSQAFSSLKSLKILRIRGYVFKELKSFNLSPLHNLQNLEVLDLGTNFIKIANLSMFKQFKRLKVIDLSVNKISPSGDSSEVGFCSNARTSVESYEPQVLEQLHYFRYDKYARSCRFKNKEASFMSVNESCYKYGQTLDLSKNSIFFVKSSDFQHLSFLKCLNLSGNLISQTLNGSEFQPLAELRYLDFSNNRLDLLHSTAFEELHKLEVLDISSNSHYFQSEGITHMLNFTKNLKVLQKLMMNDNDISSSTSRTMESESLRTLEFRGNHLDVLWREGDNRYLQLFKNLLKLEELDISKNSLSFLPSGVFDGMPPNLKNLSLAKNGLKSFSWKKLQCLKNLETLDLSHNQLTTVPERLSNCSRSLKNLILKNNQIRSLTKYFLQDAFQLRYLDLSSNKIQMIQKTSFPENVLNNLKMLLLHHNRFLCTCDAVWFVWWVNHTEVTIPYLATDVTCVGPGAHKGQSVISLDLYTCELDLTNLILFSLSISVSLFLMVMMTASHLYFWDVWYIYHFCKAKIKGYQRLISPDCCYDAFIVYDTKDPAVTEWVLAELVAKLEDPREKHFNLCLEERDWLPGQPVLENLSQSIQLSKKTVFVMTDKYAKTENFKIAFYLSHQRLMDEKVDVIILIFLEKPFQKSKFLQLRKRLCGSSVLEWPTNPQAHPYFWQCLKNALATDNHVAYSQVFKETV
In words: Agonistic effect on human TLR7 (HEK-Blue hTLR7 cells). In kind it is cell-based. The method, then:
The agonistic effect of the compound represented by formula (I) on the hTLR7 protein expressed in HEK-Blue™ hTLR7 stably transfected cells was determined by the following experimental method:
A bag of HEK-Blue detection dry powder was dissolved in 50 mL of water free of endotoxin, and the solution was then placed in an incubator at 37° C. for 10 minutes followed by sterile filtration to prepare a HEK-Blue detection medium. The compound was firstly formulated into a 20 mM stock solution, then diluted with pure DMSO to a maximum concentration of 6×10^6 nM, and a total of 10 points were obtained by a 3-fold gradient dilution.
The above formulated compound was firstly diluted 20-fold with the medium, then 20 μL of the diluted compound was added to each well. The supernatant was removed from the HEK-Blue™ hTLR7 cells, to which 2-5 mL of pre-warmed PBS was then added. The cells were placed in an incubator for 1-2 minutes, gently pipetted, and counted by trypan blue staining. The cells were re-suspended in the HEK-Blue detection medium, and the concentration was adjusted to 2.2×10^5 cells/mL. […]
The plate was read with a microplate reader at a wavelength of 620 nm. The corresponding OD values were obtained, and the EC50 value of the compound was calculated by Graphpad Prism.

One may read the IC50 as the concentration that gives 50% inhibition. Low values mean greater potency, high ones weaker potency. By EC50 is commonly meant the concentration at which the effect is half-maximal.

T1 sequence (P10635 whole entry): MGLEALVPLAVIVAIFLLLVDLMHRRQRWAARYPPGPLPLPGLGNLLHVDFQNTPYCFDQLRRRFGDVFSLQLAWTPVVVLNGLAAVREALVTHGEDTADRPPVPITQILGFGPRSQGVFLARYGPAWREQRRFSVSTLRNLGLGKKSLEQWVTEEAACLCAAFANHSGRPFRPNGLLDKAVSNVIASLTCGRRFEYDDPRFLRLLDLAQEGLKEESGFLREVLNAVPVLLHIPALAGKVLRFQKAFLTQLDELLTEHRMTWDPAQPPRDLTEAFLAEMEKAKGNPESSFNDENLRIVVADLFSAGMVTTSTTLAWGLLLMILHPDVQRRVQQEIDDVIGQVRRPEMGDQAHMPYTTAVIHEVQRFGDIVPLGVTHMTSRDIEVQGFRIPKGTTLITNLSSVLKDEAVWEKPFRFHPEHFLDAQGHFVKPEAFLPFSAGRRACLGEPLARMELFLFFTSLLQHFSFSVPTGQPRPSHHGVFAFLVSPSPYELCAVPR

Turning to `CCCCOc1nc(N)c2cnn(Cc3ccc(CN4CCCC4)cc3)c2n1` [compound represented by formula (I), 6-Butoxy-1-(4-(pyrrolidin-1-ylmethyl)benzyl)-1H-pyrazolo[3,4-d]pyrimidin-4-amine], the “inhibitory effect against CYP2D6 (in words)” value in data set [1] is recorded as “no inhibitory effect”. In data set [1] (dextromethorphan probe), the IC50 was more than 30000 nM. Further, in data set [2] (HEK-Blue hTLR7 cells), the “agonistic effect on human TLR7 (in words)” value is given as “significant agonistic effect”. In addition, it took 28 nM to reach a half-maximal effect in data set [2] (HEK-Blue hTLR7 stably transfected cells) (EC50).
